According to patent US20240108739A1, “OLIGOMERIC COMPOUNDS BINDING SPECIFICALLY TO PROTEOGLYCANS” (PHI PHARMA SA, priority 2020, published 2024):
Positions of bridges follow the written chain, without caps; N, C: chain ends. Non-standard residues stand in square brackets, D forms with d. Residues, ends and D or L forms follow the SMILES beside them. Chains are numbered I, II in the order given. ξ: configuration not given here. *: point of attachment. X2 = O=C(CCCCCN1C(=O)CC(*)C1=O)NNC(=O)CCCCC1SC[C@H]2NC(=O)N[C@@H]12; ξIle = CC[C@H](C)C(N)C(=O)O; Orn = NCCC[C@H](N)C(=O)O

Key:
Assay type in all cases: cell-based
[1] = system: CHO-pgsA-745 cells (GAG-deficient mutant); assay: Flow cytometry binding of biotinylated compounds to CHO cells (Example 3); settings: 30 min at 4 °C, streptavidin-680RD fluorescence; FIG. 3B
Method: Cell lines in exponential growth phase were cultured in complete culture medium with 10% FBS and grown in 75 cm^2 cell culture flasks. On the day of the experiment, cells were harvested and transferred in V-bottom culture plates, washed with PBS 1× supplemented with BSA 3% and then incubated with (51-hS)2KC-Mal-Biotin, (51-hS)2KS-(51-hS)KC-Mal-Biotin, [(51-hS)2KS]2KK(Biotin) and VAR2-Biotin for 30 min at 4° C. in PBS 1× supplemented with BSA 3% (and eventually PEG600 2%) at various dilutions (serial dilutions).
After the incubation, cells were washed in PBS 1× supplemented with BSA 3%. For visualization, cells were incubated for 15 min at 4° C. with streptavidin coupled to 680RD fluorochrome. After the incubation, cells were washed in PBS 1× supplemented with 3% BSA and then incubated for at least 15 min at 4° C. with 4′,6-diamidino-2-phenylindole (DAPI) (Thermo Fisher Scientific) in order to exclude dead cells. Samples were directly applied to a flow cytometer. Data generated on the flow cytometer was analyzed using Flowjo™ 10.6.0.

U937 (lymphoma) cells = assay: Flow cytometry binding to tumor cell lines (Example 5); settings: FIG. 6
Method: (§1) Tumor cell lines in exponential growth phase were cultured in complete culture medium with 10% FBS and grown in 75 cm^2 cell culture flasks. On the day of the experiment, cells were harvested and transferred in V-bottom culture plates, washed with PBS 1× supplemented with BSA 3% and then incubated with the compounds for 30 min at 4° C. in PBS 1× supplemented with BSA 3% and PEG600 2% at various dilutions (serial dilutions).
(§2) After the incubation, cells were washed in PBS 1× supplemented with BSA 3%. For biotinylated compounds, cells are then incubated for 15 min at 4° C. with streptavidin coupled to 680RD fluorochrome.
(§3) After the incubation, cells were washed in PBS 1× supplemented with 3% BSA and then incubated for at least 15 min at 4° C. with DAPI (Thermo Fisher Scientific) in order to exclude dead cells and samples are directly applied to a flow cytometer. Data generated using the flow cytometer was analyzed using Flowjo™10.6.0 Fluorescence geometric mean (via the use of streptavidin-680RD) of samples was standardized by subtracting the fluorescence geometric mean of the negative control (no compound) and the addition of 1. Experimental design is outlined in Table 9.

HL-60 (leukemia) cells = assay: as above; settings: FIG. 6
Method: as §1, §2, §3

## CC[C@H](C)C(NC(=O)[C@H](CCCNC(=N)N)NC(=O)[C@H](NC(=O)[C@H](Cc1ccccc1)NC(=O)[C@H](Cc1ccc(O)cc1)NC(=O)[C@H](CCCNC(=N)N)NC(C)=O)C(C)C)C(=O)N[C@@H](CCCN)C(=O)N[C@@H](Cc1ccc(O)cc1)C(=O)N[C@@H](CCCNC(=N)N)C(=O)N[C@H](Cc1c[nH]cn1)C(=O)N[C@@H](CO)C(=O)N[C@@H](CCCCNC(=O)[C@H](CO)NC(=O)[C@@H](Cc1c[nH]cn1)NC(=O)[C@H](CCCNC(=N)N)NC(=O)[C@H](Cc1ccc(O)cc1)NC(=O)[C@H](CCCN)NC(=O)[C@@H](NC(=O)[C@H](CCCNC(=N)N)NC(=O)[C@H](NC(=O)[C@H](Cc1ccccc1)NC(=O)[C@H](Cc1ccc(O)cc1)NC(=O)[C@H](CCCNC(=N)N)NC(C)=O)C(C)C)[C@@H](C)CC)C(=O)N[C@@H](CSC1CC(=O)N(CCCCCC(=O)NNC(=O)CCCCC2SC[C@H]3NC(=O)N[C@@H]23)C1=O)C(N)=O (stereo partly drawn) [(51-hS)2KC-Mal-Biotin] (I: Ac-RYF[dV]R[ξIle][Orn]YR[dH]SKC(X2)-NH2 / II: Ac-RYF[dV]RI[Orn]YR[dH]S; amide I:12-II:C)
[1]
  reduction of fluorescence on CHO-pgsA-745 as compared with fluorescence on CHO-K1 cells: 4.6 fold
U937 (lymphoma) cells
  reduction of binding on U937 cells as compared with (51-hS)2KS-(51-hS)KC-Mal-Biotin: at least 10 ×
HL-60 (leukemia) cells
  reduction of binding on HL-60 cells as compared with (51-hS)2KS-(51-hS)KC-Mal-Biotin: at least 10 ×
